Laboratory results from patent US20160038519A1, “ADMINISTRATION OF KARENITECIN FOR THE TREATMENT OF ADVANCED OVARIAN CANCER, INCLUDING CHEMOTHERAPY-RESISTANT AND/OR THE MUCINOUS ADENOCARCINOMA SUB-TYPES” (BioNumerik Pharmaceuticals, Inc., priority 2014, published 2016).
≈ marks a conversion by molar mass, not a printed value. Like-named read-outs stand apart in the source and are kept apart here.

Assays:
MDR-expressing sublines = details: cited from earlier work; for Resistance of MDR-expressing sublines relative to parental wild-type cells: comparison studies; for Change in sensitivity typically described for classic MDR substrates: same experiments
COV644 Cell Line = assay: SRB cytotoxicity assay, COV644; format: cell-based, human
Protocol: (§1) In vitro studies were conducted in human mucinous ovarian cancer cell lines including JHOM2B, OMC3, and COV644. In one series of experiments, the dose response curves for BNP1350 (also known as Karenitecin), SN-38 (Irinotecan), and Topotecan were obtained and IC50 values were determined. In a second series of experiments, the effect of BNP7787 (2,2′-dithio-bis-ethane sulfonate; Tavocept) on BNP1350-induced cytotoxicity at selected BNP1350 concentrations was examined.
(§2) The JHOM2B and OMC3 cell lines were purchased from Riken Cell Bank (Japan). The COV644 cell line was purchased from SigmaAldrich. Cells were maintained as monolayered cultures in T-75 flasks and then seeded to microtiter plate wells for experiments. Population doubling-times for these three cell lines were long (i.e., exceeding 40 hours, and for some of the cell lines approaching 96 hours); therefore, the Applicants conducted initial pilot experiments and determined optimal seeding density to obtain A570 values in untreated controls that would fall within the linear range of the SRB assay after seven (7) total days of cell growth. JHOM2B cells were cultured in DMEM:F12 (1:1)+0.1 mM non-essential amino acids (NEAA)+10% FBS and were seeded at 6,000 cells per well. OMC3 cells were cultured in HamF12+10% FBS and were seeded at 8,000 cells per well. COV644 cells were cultured in DMEM+2 mM glutamine+10% FBS and were seeded at 6,000 cells per well.
(§3) The cells were manipulated in a Microzone laminar flow hood traditionally used for maintaining aseptic environments around automated instrumentation such as microplate robots, and the like. Cells were grown and maintained at 37° C. in a humidified atmosphere containing 5% CO2 in a water jacketed cell culture incubator (Forma Scientific). Cells were counted using a ViCell counter (Beckman-Coulter). An automated plate washer/stacker (ELx405/BioStak from BioTek Instruments) and a microplate reader (SpectraMax Plus from Molecular Devices) were used for conducting the SRB assay and determining A570 values for wells in the plates and the percentage of control values. Prior to SRB assays, cell viability was monitored by evaluation of microtiter plate wells. Dead cells detach and float while living cells remain attached to the bottom of the cell well.
(§4) SN-38 (Irinotecan; Sigma H0165, lot MKBQ4981) and Topotecan (Sigma T2705, lot 052M4728V) were purchased from SigmaAldrich. BNP1350 (lot KN-C192-135) and BNP7787 (lot 205001) were synthesized at BioNumerik Pharmaceuticals, Inc. (San Antonio, Tex.). BNP1350, SN38, and Topotecan were prepared as 2.5, 2.5, and 25 mM stocks in DMSO (ATCC, cell culture grade).
(§5) The sulforhodamine B (SRB) cytotoxicity assay was used to assess cell survival. Briefly, after the medium was decanted from individual plate wells, trichloroacetic acid (100 μL of 10.0 percent solution) was added to each well, and the plates were incubated at 4° C. for 1 hour. The plates were washed five times with water using an automated microplate washer (Model ELx405, Bio-Tek Instruments), SRB solution (100 μL of 0.4% SRB dissolved in 1.0 percent acetic acid) was added, and plates remained at room temperature for 15 minutes. The plates were then washed five times using acetic acid (1.0 percent), air dried, and bound dye was solubilized in Tris base (150 μL, 10 mM). Plates were agitated (gently) for 5 minutes and the absorbance values of the SRB dye-protein adduct at 570 nanometers (A570) were determined using an automated microtiter plate reader (SpectraMax Plus, Molecular Devices). IC50 values were extrapolated from dose response curves of the data using OriginLab Software.
(§6) The 1050 values exceeded the solubility in medium for each compound—the limit of solubility in cell culture medium for the compounds were as follows: 2 micromolar for BNP1350 and SN38, and 20 micromolar for Topotecan. Cells were treated for periods of 2.5 hours or 6 hours and, in each case, the […] values were not reached. Longer treatments were not performed.

JHOM2B Cell Line = assay: SRB cytotoxicity assay, JHOM2B; format: cell-based, human; details: Homo sapiens
Protocol: as §1, §2, §3, §4, §5

[1] = Limit of solubility in cell culture medium; format: physicochemical; details: aqueous buffer
Protocol: as §6

OMC3 Cell Line = assay: SRB cytotoxicity assay, OMC3; format: cell-based, human; details: Homo sapiens
Protocol: as §1, §2, §3, §4, §5

[2] = system: stage III/IV advanced epithelial ovarian cancer resistant or refractory to platinum- and taxane-based regimens
Protocol: Such Phase III clinical trial is sometimes referred to herein as the “Karenitecin Phase III Trial”.
The Primary Endpoint of the disclosed Karenitecin Phase III Trial was Progression Free Survival (“PFS”); which was defined as the time period from the date of randomization to the date of first radiographically-documented Progressive Disease (“PD”) or date of death due to any cause, taking the event date that occurs first. The date of PD was determined by radiographical objective disease (RECIST) measurement. The Secondary Endpoints of the disclosed Karenitecin Phase III Trial included: (i) Overall Survival (hereinafter “OS”), defined as the time from the date of randomization to the date of death due to any cause; (ii) Incidence of anemia, defined as the proportion of subjects who experience ≧grade 3 anemia based on National Cancer Institute Common Terminology Criteria for Adverse Events (NCI-CTCAE) criteria at any time post-baseline after receiving study treatment; (iii) Incidence of neutropenia (including febrile neutropenia), defined as the proportion of subjects who experience ≧grade 3 neutropenia based on NCI-CTCAE criteria at any time post-baseline after receiving study treatment; and (iv) Incidence of thrombocytopenia, defined as the proportion of subjects who experience ≧grade 3 thrombocytopenia based on NCI-CTCAE criteria at any time post-baseline after receiving study treatment.
Approximately 80 study centers participated in this clinical study. The primary endpoint was Progression Free Survival (PFS); defined as the time period from the date of randomization to the date of first radiographically documented progressive disease or disease progression (“PD”) or date of death due to any cause, taking the event date that occurs first.
The primary endpoint was Progression Free Survival (PFS); defined as the time period from the date of randomization to the date of first radiographically documented progressive disease (PD) or date of death due to any cause, taking the event date that occurs first. The date of PD was determined by radiographically objective disease (RECIST) measurement.
• Overall Survival (OS), defined as the time from the date of randomization to the date of death due to any cause. • Incidence of anemia, defined as the proportion of subjects who experience ≧grade 3 anemia based on National Cancer Institute Common Terminology Criteria for Adverse Events (NCI-CTCAE) criteria at any time post-baseline after receiving study treatment. • Incidence of neutropenia (including febrile neutropenia), defined as the proportion of subjects who experience ≧grade 3 neutropenia based on NCI-CTCAE criteria at any time post-baseline after receiving study treatment. • Incidence of thrombocytopenia, defined as the proportion of subjects who experience ≧grade 3 thrombocytopenia based on NCI-CTCAE criteria at any time post-baseline after receiving study treatment.
During this period, subjects received either Karenitecin (1.0 mg/m^2/day administered as a 60-minute intravenous infusion) or Topotecan (1.5 mg/m^2/day administered as a 30-minute intravenous infusion) daily for 5 consecutive days, every 21 days (one treatment cycle=21 days).

[3] = system: resistant subline containing less than 4% of the topoisomerase I activity; details: subline with less than 4% of topoisomerase I activity; cited from earlier work
[4] = system: platinum-refractory epithelial ovarian cancer; details: cited from earlier work
[5] = 2 hour drug exposure, average of Test 1 and Test 2, read-out: IC50, Average
[6] = 2 hour drug exposure, read-out: IC50, Test 1 (2 replicate plates)
[7] = 2 hour drug exposure, read-out: IC50, Test 2 (3 replicate plates)
[8] = Mucinous adenocarcinoma subtype

Structure (SMILES): CC[C@@]1(O)C(=O)OCc2c1cc1n(c2=O)Cc2cc3c(CN(C)C)c(O)ccc3nc2-1 [Topotecan]
- Resistance of MDR-expressing sublines relative to parental wild-type cells (MDR-expressing sublines): nine-fold more resistant
- IC50 (COV644 Cell Line; Homo sapiens, 2, 5, and 6 hour drug exposures, did not reach 50% of Control, read-out: IC50, Test 1 (2 replicate plates)): > 20 µM
- IC50 (COV644 Cell Line; Homo sapiens, 2, 5, and 6 hour drug exposures, did not reach 50% of Control, read-out: IC50, Test 2 (2 to 3 replicate plates)): > 20 µM
- IC50 (COV644 Cell Line; Homo sapiens, 2, 5, and 6 hour drug exposures, read-out: IC50, Average): > 20 µM
- IC50 (COV644 Cell Line; Homo sapiens, read-out: IC50 values): > 20 µM
- IC50 (JHOM2B Cell Line; [5]): 5.17 µM
- IC50 (JHOM2B Cell Line; [6]): 4.75 ± 0.25 µM
- IC50 (JHOM2B Cell Line; [7]): 5.59 ± 0.28 µM
- IC50 (JHOM2B Cell Line; read-out: IC50 values): 5.17 µM
- solubility [1]: 20 µM (≈ 8.43 µg/mL)
- IC50 (OMC3 Cell Line; [5]): 3.94 µM
- IC50 (OMC3 Cell Line; [6]): 3.12 ± 0.18 µM
- IC50 (OMC3 Cell Line; [7]): 4.76 ± 0.25 µM
- IC50 (OMC3 Cell Line; read-out: IC50 values): 3.94 µM
- Median PFS [2, 8]: 9.1 weeks
- Overall survival (OS), third quartile [2, 8]: 19.4 months
- Median PFS ([2]; overall trial population, IRC-determined): 17.8 weeks
- Median PFS ([2]; refractory or resistant and/or mucinous subpopulation): 18.7 weeks

Structure (SMILES): CC[C@@]1(O)C(=O)OCc2c1cc1n(c2=O)Cc2cc3ccccc3nc2-1 [camptothecin]
- Resistance of MDR-expressing sublines relative to parental wild-type cells (MDR-expressing sublines): No increase in resistance
- Decrease in sensitivity of resistant subline compared with wild-type parental cells [3]: 1000 fold

Structure (SMILES): N.N.O=C([O-])C1(C(=O)[O-])CCC1.[Pt+2] [carboplatin]
- Stable disease ([4]; 6 subjects): 18%
- Response rate, subgroup with platinum-free interval of 12 months ([4]; 26 subjects (7/26)): 27%
- Overall response rate to platinum reinduction ([4]; 33 subjects, single-agent carboplatin after taxane failure): 21%
- Median duration of response ([4]; in vivo): ≥ 7 months

Structure (SMILES): COc1cccc2c1C(=O)c1c(O)c3c(c(O)c1C2=O)C[C@@](O)(C(=O)CO)C[C@@H]3O[C@H]1C[C@H](N)[C@H](O)[C@H](C)O1 [doxorubicin]
- Change in sensitivity typically described for classic MDR substrates (MDR-expressing sublines): 200 fold

Structure (SMILES): COc1cc([C@@H]2c3cc4c(cc3[C@@H](O[C@@H]3O[C@@H]5CO[C@@H](C)O[C@H]5[C@H](O)[C@H]3O)[C@H]3COC(=O)[C@H]23)OCO4)cc(OC)c1O [etoposide]
- Change in sensitivity typically described for classic MDR substrates (MDR-expressing sublines): 200 fold
